# Results from US7332200B1, “Permeabilizing biofilms” (The General Hospital Corporation, priority 1999, dated 2008).
# System: A. viscosus in biofilms
# Test: Phototoxicity (bacterial killing, colony counts) of methylene blue on A. viscosus biofilms with red light, with or without a stress wave
# Type: cell-based
# Protocol: The biofilms were grown on enamel surfaces as described in Example 1. Biofilms were incubated with methylene blue for 1 or 5 minutes and exposed to stress waves (one pulse), after which they were exposed to 666 nm red light with a fluence of 15 J/cm^2 at an irradiance of 50 mW/cm^2. In control samples, biofilms were treated only with methylene blue, or were treated with methylene blue and exposed to red light, but without stress waves. An argon ion laser with an emission of 514.5. nm was used to pump a dye laser. The laser light was coupled into a 1.0 mm quartz fiber and appropriate spot sizes were created with an objective lens.
# After illumination, adherent bacteria from the samples as treated above were scraped from the enamel surfaces with a sterile blade and dispersed in trypticase soy broth. Serial dilutions were prepared, and 100 μl aliquots were spread over the surfaces of blood agar plates. Survival fractions from each biofilm were calculated by counting the colonies on the plates and dividing by the number of colonies from dark controls incubated with the drug and kept at room temperature for periods equal to irradiation time. Other controls were: 1) biofilms untreated with methylene blue, light, or stress waves; 2) biofilms exposed only to a stress wave; 3) biofilms exposed to light without methylene blue; and 4) biofilms exposed to light after incubation with methylene blue.
smiles,measurement,setting,value
CN(C)c1ccc2nc3ccc(=[N+](C)C)cc-3sc2c1 [methylene blue],bacteria associated with biofilms killed,"five-minute incubation with 50 μg/ml methylene blue, red light, no stress wave",57%
same,bacteria associated with biofilms killed,"five-minute incubation with 50 μg/ml methylene blue, stress wave (one pulse) and 666 nm red light 15 J/cm^2",99%
same,bacteria associated with biofilms killed,"one-minute incubation with 50 μg/ml methylene blue, red light, no stress wave",34%
same,bacteria associated with biofilms killed,"one-minute incubation with 50 μg/ml methylene blue, stress wave (one pulse) and red light",96.5%
